# Measured values reported in ChEMBL document CHEMBL3600349 (Bioorg Med Chem Lett, 2015).
# Columns and labels:
# [1] = Half life in rat liver microsomes; assay type: ADME
# [2] = Lipophilicity, log P of the compound by HPLC analysis; assay type: physicochemical
# U-937 = test: Toxicity in human U937 cells assessed as first effect concentration for phospholipidosis by nile red uptake assay; assay type: cell-based
# hERG (KCNH2) = hERG (KCNH2) (Homo sapiens, UniProt Q12809); test: Inhibition of human ERG at 10 uM by patch clamp assay
# Chain of hERG (KCNH2) (Q12809 whole entry): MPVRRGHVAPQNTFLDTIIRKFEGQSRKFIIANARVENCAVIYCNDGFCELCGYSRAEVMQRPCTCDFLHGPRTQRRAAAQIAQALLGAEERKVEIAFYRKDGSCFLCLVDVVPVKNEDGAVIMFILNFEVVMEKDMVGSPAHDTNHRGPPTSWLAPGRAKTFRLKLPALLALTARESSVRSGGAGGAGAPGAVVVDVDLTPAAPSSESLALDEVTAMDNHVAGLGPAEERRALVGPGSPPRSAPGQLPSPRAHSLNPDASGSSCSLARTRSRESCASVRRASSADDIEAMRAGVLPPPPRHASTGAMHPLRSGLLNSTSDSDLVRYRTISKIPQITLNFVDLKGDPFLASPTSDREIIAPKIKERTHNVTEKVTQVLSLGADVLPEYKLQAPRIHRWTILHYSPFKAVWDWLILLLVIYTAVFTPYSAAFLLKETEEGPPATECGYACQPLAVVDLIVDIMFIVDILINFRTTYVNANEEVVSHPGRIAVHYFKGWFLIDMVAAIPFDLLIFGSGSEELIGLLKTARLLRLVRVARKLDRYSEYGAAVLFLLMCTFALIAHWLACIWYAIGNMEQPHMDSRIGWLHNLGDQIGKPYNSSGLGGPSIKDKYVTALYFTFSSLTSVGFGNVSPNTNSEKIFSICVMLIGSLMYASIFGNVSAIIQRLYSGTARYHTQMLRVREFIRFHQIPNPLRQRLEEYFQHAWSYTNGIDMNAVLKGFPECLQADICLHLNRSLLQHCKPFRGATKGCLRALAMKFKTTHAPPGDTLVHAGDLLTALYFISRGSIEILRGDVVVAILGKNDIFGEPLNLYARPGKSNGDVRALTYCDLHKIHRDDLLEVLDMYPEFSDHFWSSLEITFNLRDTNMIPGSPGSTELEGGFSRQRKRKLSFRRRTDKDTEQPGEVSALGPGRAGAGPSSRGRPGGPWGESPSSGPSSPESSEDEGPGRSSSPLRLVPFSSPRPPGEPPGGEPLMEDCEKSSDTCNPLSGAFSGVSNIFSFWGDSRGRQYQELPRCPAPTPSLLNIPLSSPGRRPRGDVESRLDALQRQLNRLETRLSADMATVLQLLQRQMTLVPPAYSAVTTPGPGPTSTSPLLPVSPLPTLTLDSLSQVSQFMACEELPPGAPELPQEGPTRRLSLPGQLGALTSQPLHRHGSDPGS
# [3] = Intrinsic clearance in human hepatocytes assessed per 10^6 cells; assay type: ADME, cell-based, Hepatocyte; details: read-out: CLH
# [4] = molecular target: Melanin-concentrating hormone receptor 1 (Homo sapiens, UniProt Q99705); test: Displacement of [125I]-MCH from human MCH-R1 expressed in CHO/Galpha16 cells after 60 mins by scintillation counting; assay type: cell-based
# Chain of Melanin-concentrating hormone receptor 1 (Q99705 whole entry): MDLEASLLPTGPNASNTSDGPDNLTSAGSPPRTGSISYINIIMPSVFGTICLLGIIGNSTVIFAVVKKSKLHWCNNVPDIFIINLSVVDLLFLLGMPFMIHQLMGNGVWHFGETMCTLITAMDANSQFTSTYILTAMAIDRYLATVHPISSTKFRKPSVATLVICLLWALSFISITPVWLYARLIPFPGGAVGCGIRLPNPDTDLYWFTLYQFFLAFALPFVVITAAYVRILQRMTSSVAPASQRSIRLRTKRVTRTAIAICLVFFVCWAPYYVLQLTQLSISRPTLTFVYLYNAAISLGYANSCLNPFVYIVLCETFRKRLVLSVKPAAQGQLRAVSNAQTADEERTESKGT
# Homo sapiens [5] = species: Homo sapiens; test: Selectivity ratio, ratio of muscarinic M1 receptor (unknown origin) to human MCH-R1
# Homo sapiens [6] = species: Homo sapiens; test: Selectivity ratio, ratio of 5HT2A receptor (unknown origin) to human MCH-R1
# Rattus norvegicus = test: Antiobesity activity in diet-induced obese Wistar rat model assessed as reduction of body weight at 5 mg/kg, po qd after 4 weeks; assay type: functional; parameters: scale not given: the % may be the effect or the level left
SMILES,half-life [1] [min],logP [2],Activity (U-937) [µM],inhibition at 10 µM (hERG (KCNH2)) [%],hepatocyte CLint [3] [µL/min/1e6 cells],IC50 [4] [nM],Ratio (Homo sapiens [5]),Ratio (Homo sapiens [6]),Activity (Rattus norvegicus) [%]
Cc1cc(CN(C)C)ccc1C(=O)Cn1ncc(OCc2ccc(Cl)cn2)cc1=O,> 45,3.1,50,,,,,,
Cc1cc(CN(C)C)ccc1C(=O)Cn1ccc(OCc2ccc(Cl)cn2)cc1=O,44,2.7,50,41,14,33,,,
CN(C)Cc1ccc(C(=O)Cn2ncc(OCc3ccc(Br)cn3)cc2=O)cc1,7,3.1,,,58,22,,,
Cc1cc(CN(C)C)ccc1C(=O)Cn1ncc(OCc2ccc(Br)cn2)cc1=O,29,3.4,50,,12,,,,
CN(C)Cc1ccc(C(=O)Cn2ccc(OCc3ccccc3)cc2=O)cc1,23,3,100,63,24,13,> 200,> 200,
CN(C)Cc1ccc(C(=O)Cn2ncc(OCc3ccccc3)cc2=O)cc1,6,3.6,,,17,10,,,
CN(C)Cc1ccc(CCn2ccc(OCc3ccccc3)cc2=O)cc1,5,3.2,100,,,7,,,
CC(C)CC(N(C)C)C1(c2ccc(Cl)cc2)CCC1 (centres undefined) [SIBUTRAMINE],,,,,,,,,10.9
